Measured values from ChEMBL document CHEMBL5338738, “Discovery of Novel Sesquiterpene Lactone Derivatives as Potent PKM2 Activators for the Treatment of Ulcerative Colitis” (J Med Chem, 2023).
Calls of active or inactive are those of the source. The calls are words filed in the database; no cut-off is given here.

How the values were obtained:
[1] = tested on: T-cell; assay: Immunomodulatory activity in C57BL/6 mouse mesenteric lymph node T cells assessed as inhibition of concanavalin A stimulated T-cell proliferation incubated for 68 hrs by CCK-8 assay; type: functional, cell-based; settings: C57BL/6, T-cell
[2] = molecular target: T1, Pyruvate kinase PKM (Homo sapiens, UniProt P14618); assay: Activation of PKM2 (unknown origin) at 3 uM incubated for 30 mins relative to control
Target sequence in this assay (P14618 2-531 limits assumed): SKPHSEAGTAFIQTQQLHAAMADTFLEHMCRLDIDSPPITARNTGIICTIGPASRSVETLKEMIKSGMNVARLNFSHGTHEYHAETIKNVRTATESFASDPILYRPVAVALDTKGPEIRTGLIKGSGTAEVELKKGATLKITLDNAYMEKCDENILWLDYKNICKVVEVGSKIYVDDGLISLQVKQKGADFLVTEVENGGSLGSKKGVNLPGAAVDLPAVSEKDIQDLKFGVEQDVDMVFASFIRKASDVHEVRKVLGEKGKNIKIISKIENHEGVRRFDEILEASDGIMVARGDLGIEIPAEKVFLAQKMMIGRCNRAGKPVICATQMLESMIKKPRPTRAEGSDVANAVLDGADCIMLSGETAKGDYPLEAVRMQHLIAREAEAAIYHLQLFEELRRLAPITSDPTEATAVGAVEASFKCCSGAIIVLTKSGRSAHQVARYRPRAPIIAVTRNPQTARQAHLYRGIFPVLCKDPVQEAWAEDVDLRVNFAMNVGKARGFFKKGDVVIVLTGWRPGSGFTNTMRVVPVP

[3] = molecular target: T1, Pyruvate kinase PKM; assay: Activation of PKM2 (unknown origin) incubated for 30 mins
Target sequence in this assay (P14618 whole entry): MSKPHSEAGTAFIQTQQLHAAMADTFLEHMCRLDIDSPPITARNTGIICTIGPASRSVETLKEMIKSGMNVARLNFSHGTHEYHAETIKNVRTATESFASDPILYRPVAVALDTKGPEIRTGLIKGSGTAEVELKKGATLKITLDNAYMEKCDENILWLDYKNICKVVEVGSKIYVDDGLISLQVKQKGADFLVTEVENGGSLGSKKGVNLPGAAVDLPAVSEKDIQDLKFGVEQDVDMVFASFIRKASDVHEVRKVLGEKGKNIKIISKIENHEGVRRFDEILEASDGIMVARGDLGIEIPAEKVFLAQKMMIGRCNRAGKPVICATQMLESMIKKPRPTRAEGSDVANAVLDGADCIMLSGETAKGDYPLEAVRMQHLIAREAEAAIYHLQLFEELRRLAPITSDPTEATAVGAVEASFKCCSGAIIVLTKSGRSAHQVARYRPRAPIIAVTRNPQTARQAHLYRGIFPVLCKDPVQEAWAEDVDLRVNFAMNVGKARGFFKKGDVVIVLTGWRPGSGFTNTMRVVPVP

| Activity [2] | EC50 [3] [nM] | Compound | IC50 [1] [nM] |
| --- | --- | --- | --- |
| inactive | – | C=C1C(=O)O[C@@H]2/C=C(\C)CC/C=C(/C(=O)O)CC[C@@H]12 | 10200 |
| – | – | C=C1C(=O)O[C@H]2[C@H]1CC[C@@H](C)CCC[C@@]1(C)O[C@@H]21 | 1420 |
| inactive | – | C=C1C(=O)O[C@@H]2/C=C(\C)CC/C=C(/C=O)CC[C@@H]12 | 25900 |
| inactive | – | C/C1=C\[C@H]2OC(=O)/C(=C\c3ccccc3)[C@@H]2CC/C(C)=C/CC1 | 16100 |
| – | – | C=C1C(=O)O[C@@H]2/C=C(\C)CC[C@H]3O[C@@]3(C)CC[C@@H]12 | 2630 |
| – | – | C=C1C(=O)O[C@@H]2/C=C(\C)CC/C=C(/CF)CC[C@@H]12 | 1520 |
| – | – | C=C1C(=O)O[C@@H]2/C=C(\C)CC/C=C(/C(=O)OC)CC[C@@H]12 | 850 |
| – | – | C=C1C(=O)O[C@@H]2/C=C(\C)CC/C=C(/COC(=O)[C@@H](NC(=O)[C@@H](N)[C@@H](C)CC)C(C)C)CC[C@@H]12 | 1010 |
| inactive | – | C=C1C(=O)O[C@H]2[C@H]1CC[C@]1(C)O[C@@H]1CC[C@@]1(C)O[C@@H]21 | 10600 |
| – | – | C=C1C(=O)O[C@@H]2/C=C(\C)CC[C@H]3C(F)(F)[C@@]3(C)CC[C@@H]12 | 1230 |
| – | – | C=C1C(=O)O[C@@H]2/C=C(\C)CC/C=C(/CO)CC[C@@H]12 | 720 |
| inactive | – | C=C1C(=O)O[C@@H]2C3=C(C)CC[C@@H](O)[C@]3(C)CC[C@@H]12 | 6170 |
| – | – | C=C1C(=O)O[C@@H]2/C=C(\C)CCC[C@H](C)CC[C@@H]12 | 2890 |
| inactive | – | C=C1CC[C@@H](O)[C@]2(C)CC[C@H]3C(=C)C(=O)O[C@@H]3[C@@H]12 [REYNOSIN] | 6200 |
| inactive | – | C/C1=C\[C@H]2OC(=O)[C@@H](C)[C@@H]2CC/C(C)=C/CC1 [DIHYDRO COSTUNOLIDE] | 15000 |
| inactive | – | C=C1C(=O)O[C@@H]2/C=C(\C)CC/C=C(/CCl)CC[C@@H]12 | 15200 |
| – | – | C=C1C(=O)O[C@@H]2/C=C(\C)CC/C=C(/COC(=O)[C@@H](N)C(C)C)CC[C@@H]12 | 880 |
| – | – | C=C1C(=O)O[C@@H]2/C=C(\C)CC/C=C(/C(F)F)CC[C@@H]12 | 1210 |
| – | – | C=C1C(=O)O[C@@H]2/C=C(\C)CC/C=C(/C(=O)OCC)CC[C@@H]12 | 1030 |
| inactive | – | C=C1C(=O)O[C@@H]2/C=C(\C)CC/C=C(/CBr)CC[C@@H]12 | 11800 |
| – | – | C=C1C(=O)O[C@@H]2C[C@@H](C)CC[C@H]3O[C@@]3(C)CC[C@@H]12 | 1970 |
| inactive | – | C=C1C(=O)O[C@@H]2[C@H]3C(C)=CC[C@@H](O)[C@]3(C)CC[C@@H]12 [SANTAMARIN] | 5560 |
| – | 1510 | C=C1C(=O)O[C@@H]2/C=C(\C)CC/C=C(\C)CC[C@@H]12 [COSTUNOLIDE] | 2570 |
